Measurements taken from patent US20250049660A1, “ENOL ETHER PROPERFUME” (FIRMENICH SA, priority 2021, published 2025).

Experiment: Acid-catalyzed hydrolysis of enol ethers in THF/1 M HCl
Type: physicochemical
Details: THF/1M HCl (80:20 v/v), room temperature, 5 h
Protocol: The acid-catalyzed hydrolysis of Compounds 1, 2, 3 and 25 were measured and compared to the hydrolysis of enol ethers report in WO2019243501. Each enol ether was dissolved in a 4:1 THF/1 M HCl mixture and the percent remaining over time measured relative to an internal standard.
Into a 15 mL vial were added 125 mg of enol ether, 60 mg of hexadecane and 10 mL of THE (purged with N2 and containing 2500 ppm of BHT). After mixing, 2 mL of this solution were removed with a volumetric pipet and used to obtain the time zero measurement. 2 mL of 1 M HCl were mixed with the remaining 8 mL of the THF solution. This mixture was divided into 5 mL vials (1 mL per vial). The vials were gently topped with nitrogen and fitted with screw caps around which parafilm was wrapped. The vials were stored at room temperature until analyzed. For analyses, 2 mL of ethyl acetate was added to a vial and mixed. After phase separation, the top phase was collected and washed with saturated sodium carbonate (1 mL). Samples of the organic phase were analyzed by GC-FID. For the time zero sample, 0.5 mL of deionized water was added to the 2 mL taken from the original THE solution. 1 mL of this solution was added to a 5 mL vial and diluted with 2 mL of ethyl acetate and mixed. The top phase was collected and washed with saturated sodium carbonate (1 mL). The top phase then was analyzed by GC-FID. The percent of enol ether remaining was determined by dividing the peak area ratio of the enol ether to internal standard by the ratio measured at time zero.

Row | SMILES | Hydrolysis of enol ethers, percent remaining, 5 h [%]
1 | CC/C=C\CCOC=CC(C)CCCCCCCCC (stereo not shown) [Compound 27, 1-(((Z)-hex-3-en-1-yl)oxy)-3-methyldodec-1-ene] | 29.8
2 | CCCCCCCCCCCC=COCCc1ccccc1 [Compound 2, (2-(tridec-1-en-1-yloxy)ethyl)benzene] | 16.3
3 | C=CCCCCCCCC=COCCc1ccccc1 [Compound 3, (2-(undeca-1,10-dien-1-yloxy)ethyl)benzene] | 19.9
4 | CCCCCCCCCCC=COCCc1ccccc1 [Compound 1, (2-(dodec-1-en-1-yloxy)ethyl)benzene] | 12.8
5 | CCCCCCCCCC(C)C=COCCc1ccccc1 (stereo not shown) [Compound 25, (2-((3-methyldodec-1-en-1-yl)oxy)ethyl)benzene] | 35.6
6 | CCCCCCCCCC(C)C=COC(CC)CCCCC (stereo not shown) [Compound 29, 3-methyl-1-(octan-3-yloxy)dodec-1-ene] | 3.7

Same assay, conditions: THF/1M HCl (80:20 v/v), room temperature, 1 d

Row | SMILES | Hydrolysis of enol ethers, percent remaining, 1 d [%]
7 | CCCCCCCCCCCC=COCCc1ccccc1 [Compound 2, (2-(tridec-1-en-1-yloxy)ethyl)benzene] | 0
8 | CC/C=C\CCOC=Cc1ccc(OC)cc1 [1-(2-(((Z)-hex-3-en-1-yl)oxy)vinyl)-4-methoxybenzene, reference compound] | 89.1
9 | C=CCCCCCCCC=COCCc1ccccc1 [Compound 3, (2-(undeca-1,10-dien-1-yloxy)ethyl)benzene] | 0
10 | CCCCCCCCCCC=COCCc1ccccc1 [Compound 1, (2-(dodec-1-en-1-yloxy)ethyl)benzene] | 0
11 | CCCCCCCCCC(C)C=COCCc1ccccc1 (stereo not shown) [Compound 25, (2-((3-methyldodec-1-en-1-yl)oxy)ethyl)benzene] | 4.6
12 | C(=Cc1ccccc1)OCCc1ccccc1 [(2-phenethoxyvinyl)benzene, reference compound] | 95
13 | CCCCCC(CC)OC=Cc1ccccc1 (stereo not shown) [(2-(octan-3-yloxy)vinyl)benzene, reference compound] | 84.9

Same assay, conditions: THF/1M HCl (80:20 v/v), room temperature, 2 d

Row | SMILES | Hydrolysis of enol ethers, percent remaining, 2 d [%]
14 | CCCCCCCCCCCC=COCCc1ccccc1 [Compound 2, (2-(tridec-1-en-1-yloxy)ethyl)benzene] | 0
15 | CC/C=C\CCOC=Cc1ccc(OC)cc1 [1-(2-(((Z)-hex-3-en-1-yl)oxy)vinyl)-4-methoxybenzene, reference compound] | 80.2
16 | C=CCCCCCCCC=COCCc1ccccc1 [Compound 3, (2-(undeca-1,10-dien-1-yloxy)ethyl)benzene] | 0
17 | CCCCCCCCCCC=COCCc1ccccc1 [Compound 1, (2-(dodec-1-en-1-yloxy)ethyl)benzene] | 0
18 | CCCCCCCCCC(C)C=COCCc1ccccc1 (stereo not shown) [Compound 25, (2-((3-methyldodec-1-en-1-yl)oxy)ethyl)benzene] | 0
19 | C(=Cc1ccccc1)OCCc1ccccc1 [(2-phenethoxyvinyl)benzene, reference compound] | 90
20 | CCCCCC(CC)OC=Cc1ccccc1 (stereo not shown) [(2-(octan-3-yloxy)vinyl)benzene, reference compound] | 72.0

Same assay, conditions: THF/1M HCl (80:20 v/v), room temperature, 3 d

Row | SMILES | Hydrolysis of enol ethers, percent remaining, 3 d [%]
21 | CCCCCCCCCCCC=COCCc1ccccc1 [Compound 2, (2-(tridec-1-en-1-yloxy)ethyl)benzene] | 0
22 | CC/C=C\CCOC=Cc1ccc(OC)cc1 [1-(2-(((Z)-hex-3-en-1-yl)oxy)vinyl)-4-methoxybenzene, reference compound] | 72.4
23 | C=CCCCCCCCC=COCCc1ccccc1 [Compound 3, (2-(undeca-1,10-dien-1-yloxy)ethyl)benzene] | 0
24 | CC/C=C\CCOC=Cc1ccccc1 [(2-(((Z)-hex-3-en-1-yl)oxy)vinyl)benzene, reference compound] | 79.5
25 | CCCCCCCCCCC=COCCc1ccccc1 [Compound 1, (2-(dodec-1-en-1-yloxy)ethyl)benzene] | 0
26 | CCCCCCCCCC(C)C=COCCc1ccccc1 (stereo not shown) [Compound 25, (2-((3-methyldodec-1-en-1-yl)oxy)ethyl)benzene] | 0
27 | C(=Cc1ccccc1)OCCc1ccccc1 [(2-phenethoxyvinyl)benzene, reference compound] | 83.7
28 | CCCCCC(CC)OC=Cc1ccccc1 (stereo not shown) [(2-(octan-3-yloxy)vinyl)benzene, reference compound] | 61.7

Same assay, conditions: THF/1M HCl (80:20 v/v), room temperature, 7 d

Row | SMILES | Hydrolysis of enol ethers, percent remaining, 7 d [%]
29 | CCCCCCCCCCCC=COCCc1ccccc1 [Compound 2, (2-(tridec-1-en-1-yloxy)ethyl)benzene] | 0
30 | CC/C=C\CCOC=Cc1ccc(OC)cc1 [1-(2-(((Z)-hex-3-en-1-yl)oxy)vinyl)-4-methoxybenzene, reference compound] | 52.5
31 | C=CCCCCCCCC=COCCc1ccccc1 [Compound 3, (2-(undeca-1,10-dien-1-yloxy)ethyl)benzene] | 0
32 | CC/C=C\CCOC=Cc1ccccc1 [(2-(((Z)-hex-3-en-1-yl)oxy)vinyl)benzene, reference compound] | 57.3
33 | CCCCCCCCCCC=COCCc1ccccc1 [Compound 1, (2-(dodec-1-en-1-yloxy)ethyl)benzene] | 0
34 | CCCCCCCCCC(C)C=COCCc1ccccc1 (stereo not shown) [Compound 25, (2-((3-methyldodec-1-en-1-yl)oxy)ethyl)benzene] | 0
35 | C(=Cc1ccccc1)OCCc1ccccc1 [(2-phenethoxyvinyl)benzene, reference compound] | 66.4
36 | CCCCCC(CC)OC=Cc1ccccc1 (stereo not shown) [(2-(octan-3-yloxy)vinyl)benzene, reference compound] | 33.6

Same assay, conditions: THF/1M HCl (80:20 v/v), room temperature, initial (time zero)

Row | SMILES | Hydrolysis of enol ethers, percent remaining, initial [%]
37 | CC/C=C\CCOC=CC(C)CCCCCCCCC (stereo not shown) [Compound 27, 1-(((Z)-hex-3-en-1-yl)oxy)-3-methyldodec-1-ene] | 100
38 | CCCCCCCCCCCC=COCCc1ccccc1 [Compound 2, (2-(tridec-1-en-1-yloxy)ethyl)benzene] | 100
39 | CC/C=C\CCOC=Cc1ccc(OC)cc1 [1-(2-(((Z)-hex-3-en-1-yl)oxy)vinyl)-4-methoxybenzene, reference compound] | 100
40 | C=CCCCCCCCC=COCCc1ccccc1 [Compound 3, (2-(undeca-1,10-dien-1-yloxy)ethyl)benzene] | 100
41 | CC/C=C\CCOC=Cc1ccccc1 [(2-(((Z)-hex-3-en-1-yl)oxy)vinyl)benzene, reference compound] | 100
42 | CCCCCCCCCCC=COCCc1ccccc1 [Compound 1, (2-(dodec-1-en-1-yloxy)ethyl)benzene] | 100
43 | CCCCCCCCCC(C)C=COCCc1ccccc1 (stereo not shown) [Compound 25, (2-((3-methyldodec-1-en-1-yl)oxy)ethyl)benzene] | 100
44 | CCCCCCCCCC(C)C=COC(CC)CCCCC (stereo not shown) [Compound 29, 3-methyl-1-(octan-3-yloxy)dodec-1-ene] | 100
45 | C(=Cc1ccccc1)OCCc1ccccc1 [(2-phenethoxyvinyl)benzene, reference compound] | 100
46 | CCCCCC(CC)OC=Cc1ccccc1 (stereo not shown) [(2-(octan-3-yloxy)vinyl)benzene, reference compound] | 100
